Measured values reported in patent US8546421B1, “Oncogenic-RAS-signal dependent lethal compounds” (The Trustees of Columbia University in the City of New York, priority 2007, dated 2013).

Columns and labels:
Calu-1 = assay: Alamar Blue assay, additional cell lines; format: cell-based, human; conditions: Calu-1, Non-small cell lung carcinoma, Alamar Blue
From the text: (§1) The results of this additional testing are summarized in Tables 7-10 (no additional cell lines were identified as sensitive for Compound 3). […] The tumor type, cell line, maximum percentage inhibition, the concentration of compound required to inhibit cell growth by 50%, and RAS mutation (if any) are also summarized.

PaCa-2 = assay: Alamar Blue assay, additional cell lines; format: cell-based, human; conditions: Pancreatic Cancer
From the text: as §1

[1] = tested on: BJ-TERT/LT/ST/RAS^V12 cells; assay: Counter screening with biologically active compounds; format: cell-based, human
Procedure: Biologically active compounds listed in Table 1 were dissolved in BJ medium at 10× final concentration and aliquoted into eppendorf tubes. 100 μL of each 10× solution was transferred to column 1 to column 12 or column 13 to column 24 of a single row in a 384-well daughter plate. This plate was designated as ‘10× biologically active plate’. In order to prepare lethal compound solution, Erastin and compounds 3, 6, 27, and 36 were dissolved in BJ medium at a concentration of 100 μg/mL, 400 μg/mL, 400 μg/mL, 100 μg/mL, and 200 μg/mL, respectively. Empty daughter plates were filled with 50 μL BJ media except for columns 5 and 13 where 100 μL of each lethal solution was transferred. After lethal solution transfer, 2-fold dilution series across columns 5 to 12 and columns 13 to 20 was made by transferring 50 μL compound solution to the next column successively (8-point dilution series), with mixing. These five plates were each designated ‘10× lethal plate’. Five assay plates were prepared by seeding 4,000 BJ-TERT/LT/ST/RAS^V12 cells per well in 32 μL of growth media in black, clear bottom 384-well plates. Cells in assay plates were first treated with biologically active compounds by transferring 4 μL from the 10× inhibitor plate. Cells were then treated with each lethal compound in a 2-fold dilution series by transferring 4 μL solution from each 10× lethal plate. […] Percent growth inhibition (% GI) was calculated by the following formula using fluorescence intensity values: % GI=100*(1−(X−N)/([…])) wherein X is the fluorescent intensity value measured at 590 nm for cells treated with biologically active compound and lethal compound; N is the fluorescent intensity value measured at 590 nm for a control containing no cells (i.e. biologically active compound in growth media); and P is the fluorescent intensity value measured at 590 nm for a control containing no lethal compound (i.e., cells treated with biologically active compound). Counter Screening with Iron Chelators

[2] = tested on: A549, Calu-1, PaCa, and HCT116 cells; assay: Alamar blue assay in KRAS-mutation-harboring cancer cells; format: cell-based, human
Procedure: A549, Calu-1, HCT116 and MIA PaCa-2 cell lines have an oncogenic mutation in the KRAS gene. Compounds which tested positive in the oncogenic HRAS primary screen were also tested for their selectivity against oncogenic KRAS which is more commonly mutated in human cancers.

HL-60(TB) = conditions: Leukemia
OVCAR-3 = assay: cells; conditions: Homo sapiens
MOLT-4 = assay: NCI60 anti-cancer screening
SR = assay: NCI60 anti-cancer screening
HOP-92 = assay: NCI60 anti-cancer screening
NCI-H23 = assay: NCI60 anti-cancer screening
HT29 = assay: NCI60 anti-cancer screening
KM12 = assay: NCI60 anti-cancer screening
SF-268 = assay: NCI60 anti-cancer screening
LOX IMVI = assay: NCI60 anti-cancer screening
M14 = assay: NCI60 anti-cancer screening
SK-MEL-5 = assay: NCI60 anti-cancer screening
ACHN = assay: NCI60 anti-cancer screening
RXF393 = assay: NCI60 anti-cancer screening
PC-3 = assay: NCI60 anti-cancer screening
MDA-MB-231/ATCC = assay: NCI60 anti-cancer screening
MDA-MB-435 = assay: NCI60 anti-cancer screening

C=C1CCC2C(C)(C)CCC[C@]2(C)C1CC/C(C)=C\CC/C(C)=N/NC(N)=S (stereo partly shown) [Compound 36]
Maximum Inhibition % (Calu-1): 100% | GI50 (Calu-1; Homo sapiens): 300 nM | GI50 (PaCa-2; Homo sapiens): 1500 nM | Maximum Inhibition % (PaCa-2): 100% | biologically active compounds that suppress compound-induced cell death ([1]; 36 bioactive compounds of Table 1, 24 hours, alamar blue): iron chelators (L-Mim and DFOM) and a protein synthesis inhibitor (cycloheximide) were effective | effect of MEK1/2 inhibitor (U0126) on compound-induced cell death ([1]; U0126 10 uM): inability of MEK1/2 inhibitors to suppress | activity in KRAS-mutation-harboring cancer cells (in words) [2]: active | GI 100% (HL-60(TB)): 0.545 µM | GI50 (OVCAR-3; OVCAR-3): 204 nM | CC50 (OVCAR-3; OVCAR-3, read-out: LC 50%): 4200 nM | GI50 (MOLT-4; Homo sapiens, MOLT-4): 77.3 nM | CC50 (MOLT-4; Homo sapiens, MOLT-4, read-out: LC 50%): 7390 nM | GI 100% (MOLT-4; MOLT-4, Leukemia): 1.1 µM | GI50 (SR; Homo sapiens): 1320 nM | CC50 (SR; Homo sapiens, read-out: LC 50%): 8780 nM | GI 100% (SR; Leukemia): 3.4 µM | GI 100% (HOP-92; HOP-92, Non-small cell lung carcinoma): 1.52 µM | GI50 (HOP-92; Homo sapiens, HOP-92): 479 nM | CC50 (HOP-92; Homo sapiens, HOP-92, read-out: LC 50%): 3960 nM | GI50 (NCI-H23; Homo sapiens, NCI-H23): 440 nM | CC50 (NCI-H23; Homo sapiens, NCI-H23, read-out: LC 50%): 4230 nM | GI 100% (NCI-H23; NCI-H23, Non-small cell lung carcinoma): 1.65 µM | GI 100% (HT29; HT29, Colon Cancer): 1.37 µM | GI50 (HT29; Homo sapiens, HT-29): 322 nM | CC50 (HT29; Homo sapiens, HT-29, read-out: LC 50%): 4100 nM | GI50 (KM12; Homo sapiens, KM12): 469 nM | CC50 (KM12; Homo sapiens, KM12, read-out: LC 50%): 4470 nM | GI 100% (KM12; KM12, Colon Cancer): 1.8 µM | GI50 (SF-268; Homo sapiens, SF-268): 1090 nM | CC50 (SF-268; Homo sapiens, SF-268, read-out: LC 50%): 5740 nM | GI 100% (SF-268; SF-268, CNS Cancer): 2.5 µM | GI50 (LOX IMVI; Homo sapiens): 203 nM | CC50 (LOX IMVI; Homo sapiens, read-out: LC 50%): 1320 nM | GI 100% (LOX IMVI; Melanoma): 0.478 µM | GI50 (M14; Homo sapiens, M14): 384 nM | CC50 (M14; Homo sapiens, M14, read-out: LC 50%): 4800 nM | GI 100% (M14; M14, Melanoma): 1.59 µM | GI50 (SK-MEL-5; Homo sapiens, SK-MEL-5): 209 nM | CC50 (SK-MEL-5; Homo sapiens, SK-MEL-5, read-out: LC 50%): 3050 nM | GI 100% (SK-MEL-5; SK-MEL-5, Melanoma): 0.898 µM | GI50 (ACHN; Homo sapiens): 366 nM | CC50 (ACHN; Homo sapiens, read-out: LC 50%): 3780 nM | GI 100% (ACHN; Renal Cancer): 1.43 µM | GI50 (RXF393; Homo sapiens, RXF 393): 181 nM | CC50 (RXF393; Homo sapiens, RXF 393, read-out: LC 50%): 2490 nM | GI 100% (RXF393; RXF393, Renal Cancer): 0.485 µM | GI50 (PC-3; Homo sapiens, PC-3): 548 nM | CC50 (PC-3; Homo sapiens, PC-3, read-out: LC 50%): 4260 nM | GI 100% (PC-3; PC-3, Prostate Cancer): 1.82 µM | GI50 (MDA-MB-231/ATCC; Homo sapiens, MDA-MB-231): 341 nM | CC50 (MDA-MB-231/ATCC; Homo sapiens, MDA-MB-231, read-out: LC 50%): 3270 nM | GI 100% (MDA-MB-231/ATCC; MDA-MB-231/ATCC, Breast Cancer): 1.36 µM | GI50 (MDA-MB-435; Homo sapiens, MDA-MB-435): 175 nM | CC50 (MDA-MB-435; Homo sapiens, MDA-MB-435, read-out: LC 50%): 3000 nM | GI 100% (MDA-MB-435; MDA-MB-435, Breast Cancer): 0.781 µM
